Legend:
U-2 OS cells [1] = assay: TRF analysis of cells overexpressing FANCM variants; format: cell-based, human; conditions: overexpression
Text: (§1) (a) Western immunoblotting of stable wild-type FANCM (FANCM+) or FANCM mutant overexpression in U-2 OS cells. […] (b) TRF analysis of U-2 OS cells overexpressing wild-type (FANCM+) or FANCM mutants. Gels were hybridized under native and denatured conditions with radiolabelled telomeric probes to detect the C-strand and G-strand. (c) Tukey boxplots of APB frequency (top panel) and mean APB telomere intensity (bottom panel) in U-2 OS cells overexpressing wild-type (FANCM+) or FANCM mutants. Out of 3 experiments, n=150 cells scored per variant, *p<0.05, **p<0.005, Mann-Whitney test.
(§2) Empty vector and wild-type FANCM (pCMV6-Myc-DDK) constructs were obtained from Origene Technologies. Wild type FANCM (SEQ ID NO: 2) and FANCM mutants (SEQ ID NOs: 19 to 28) were cloned into the pLenti-C-Myc-DDK-IRES-Neo backbone (Origene Technologies) by restriction enzyme subcloning of gene blocks synthesized by Integrated DNA Technologies (IDT). Lentivirus was produced by the Vector and Genome Engineering Facility (Children's Medical Research Institute). For stable overexpression, cells were transduced with lentivirus, allowed to recover for 24 h, and subject to G418 selection. Cells were maintained in G418 to ensure sustained overexpression.
Genomic DNA was digested with 4 U/μg of HinfI and RsaI overnight at 37° C. […]

U-2 OS cells [2] = assay: APB frequency and APB telomere intensity in cells overexpressing FANCM variants; format: cell-based, human; conditions: overexpression
Text: as §1
FIG. 23. Defects in ALT phenotype suppression are exacerbated by overexpression of a double-mutant (DM) FANCM, in which both the MM2 domain (FF>AA) and the translocase domain (K117R) of FANCM are mutated. (a) Representative dot blots and quantitation of C-circle assays in U-2 OS cells stably overexpressing wild-type (WT) or FANCM domain mutants (K117R, FF>AA; DM). C-circles were normalized to the mean of empty vector control (EV). Error bars represent mean±SEM from n=3 experiments, *p<0.05, **p<0.005, Student's t-test. (b) Quantitation of APB frequency in U-2 OS cells overexpressing wild-type (WT) or FANCM mutants. Scatterplot bars represent the mean±SEM. Out of three experiments, n=150 cells were scored for each mutant, **p<0.005, Mann-Whitney test. (c) Quantitation of metaphase-TIFs in U-2 OS cells stably overexpressing wild-type (WT) or FANCM mutants. Scatterplot bars represent the mean±SEM. Out of three experiments, n=120 metaphases scored for each mutant, *p<0.05, **p<0.005, Mann-Whitney test. All statistical comparisons are relative to EV control.
as §2
Indirect IF and telomere FISH were performed on both interphase nuclei and metaphase spreads. For interphase IF experiments, cells were grown on coverslips or LabTek chamber slides (Thermo Scientific). Slides were prepared as described in Sobinoff et al., 2017. Cells on coverslips were washed twice with PBS, permeabilized with KCM buffer (120 mM KCl, 20 mM NaCl, 10 mM Tris pH 7.5, 0.1% Triton), washed again with PBST and PBS, then fixed with ice-cold 4% formaldehyde PBS solution at room temperature for 10 min. Coverslips were blocked with antibody-dilution buffer (20 mM Tris-HCl, pH 7.5, 2% (w/v) BSA, 0.2% (v/v) fish gelatin, 150 mM NaCl, 0.1% (v/v) Triton X-100 and 0.1% (w/v) sodium azide) and 0.1 mg/ml RNaseA for 30 min at 37° C. Cells were incubated with primary antibodies (Supplementary Table 1) for 1 h at 37° C. or 2 h at room temperature, then incubated with 1:1,000 dilution of appropriate Alexa Fluor conjugated secondary antibodies (Thermo Scientific). Coverslips were rinsed with PBS then fixed with 4% (v/v) formaldehyde at room temperature prior to telomere FISH. Coverslips were subjected to a graded ethanol series (75% for 2 min, 85% for 2 min, and 100% for 2 min) and allowed to air-dry. […]

Row | Substance | low molecular weight ss C-rich telomeric DNA (U-2 OS cells [1]) | intensity of telomeric signal within APBs (U-2 OS cells [2]) | number of APBs (U-2 OS cells [2])
1 | FF>AA: FANCM mutant (SEQ ID NO: 25), double substitution F1232A/F1236A within the MM2 domain | smear of low molecular weight ss C-rich telomeric DNA was observed | significant increase | significant increase
2 | K117R: FANCM mutant (SEQ ID NO: 20) substituted at K117R, DEAH domain disrupted | smear of low molecular weight ss C-rich telomeric DNA was observed | significant increase | significant increase
